Source: ChEMBL document CHEMBL5143597, “Design and synthesis of novel spirocyclic carboxylic acids as potent and orally bioavailable DGAT1 inhibitors and their biological evaluation” (Bioorg Med Chem Lett, 2022)
Each block holds one molecule with its values, some of them ahead of it. Calls of active or inactive are those of the source. No cut-off for these calls is given here.

Experiments:
[1] = molecular target: CYP3A4 (Homo sapiens, UniProt P08684); assay: Inhibition of recombinant human CYP3A4 at 25 uM by fluorescence plate reader analysis; type: ADME
Chain of CYP3A4 (P08684 whole entry): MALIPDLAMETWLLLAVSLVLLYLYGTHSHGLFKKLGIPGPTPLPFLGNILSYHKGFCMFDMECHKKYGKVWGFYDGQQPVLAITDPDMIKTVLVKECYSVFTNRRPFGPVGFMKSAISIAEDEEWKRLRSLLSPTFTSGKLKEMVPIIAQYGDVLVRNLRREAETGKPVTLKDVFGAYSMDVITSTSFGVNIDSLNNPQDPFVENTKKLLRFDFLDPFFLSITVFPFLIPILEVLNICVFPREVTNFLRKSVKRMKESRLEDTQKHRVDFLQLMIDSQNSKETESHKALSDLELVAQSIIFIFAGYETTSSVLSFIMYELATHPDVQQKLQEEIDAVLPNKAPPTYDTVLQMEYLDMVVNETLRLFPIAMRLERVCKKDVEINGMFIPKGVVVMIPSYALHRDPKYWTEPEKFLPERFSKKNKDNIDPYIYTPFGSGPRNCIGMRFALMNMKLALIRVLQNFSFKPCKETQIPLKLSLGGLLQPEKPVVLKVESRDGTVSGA

[2] = molecular target: T1, CYP1A2 (Homo sapiens, UniProt P05177); assay: Inhibition of recombinant human CYP1A2 at 25 uM by fluorescence plate reader analysis; type: ADME
T1 sequence (P05177 whole entry): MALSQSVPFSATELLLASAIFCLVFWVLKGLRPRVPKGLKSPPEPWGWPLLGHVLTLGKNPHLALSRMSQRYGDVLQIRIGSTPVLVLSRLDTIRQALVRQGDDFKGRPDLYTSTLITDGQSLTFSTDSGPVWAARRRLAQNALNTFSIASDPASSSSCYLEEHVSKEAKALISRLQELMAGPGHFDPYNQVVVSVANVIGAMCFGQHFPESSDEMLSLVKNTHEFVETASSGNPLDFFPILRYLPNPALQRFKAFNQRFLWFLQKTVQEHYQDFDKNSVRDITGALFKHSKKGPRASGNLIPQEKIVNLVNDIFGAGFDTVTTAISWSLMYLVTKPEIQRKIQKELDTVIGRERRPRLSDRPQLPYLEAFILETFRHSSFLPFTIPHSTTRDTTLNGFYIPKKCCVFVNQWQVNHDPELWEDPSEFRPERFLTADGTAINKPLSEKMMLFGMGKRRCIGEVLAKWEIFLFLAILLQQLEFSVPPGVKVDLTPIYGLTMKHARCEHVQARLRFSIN

[3] = molecular target: CYP2C9 (Homo sapiens, UniProt P11712); assay: Inhibition of recombinant human CYP2C9 at 25 uM by fluorescence plate reader analysis; type: ADME
Chain of CYP2C9 (P11712 whole entry): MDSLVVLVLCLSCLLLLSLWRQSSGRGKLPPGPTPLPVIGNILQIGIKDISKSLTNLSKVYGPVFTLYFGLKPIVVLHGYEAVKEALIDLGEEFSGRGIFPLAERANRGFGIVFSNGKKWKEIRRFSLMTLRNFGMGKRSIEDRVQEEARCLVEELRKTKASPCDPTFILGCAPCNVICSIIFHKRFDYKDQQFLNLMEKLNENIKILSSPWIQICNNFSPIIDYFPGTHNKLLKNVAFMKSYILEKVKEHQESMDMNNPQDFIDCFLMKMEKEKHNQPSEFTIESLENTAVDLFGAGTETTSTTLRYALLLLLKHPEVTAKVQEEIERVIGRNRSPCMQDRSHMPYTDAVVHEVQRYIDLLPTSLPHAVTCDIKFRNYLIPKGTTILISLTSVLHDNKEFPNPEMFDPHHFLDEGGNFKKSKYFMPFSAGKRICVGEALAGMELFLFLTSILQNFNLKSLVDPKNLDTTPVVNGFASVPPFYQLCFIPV

[4] = Plasma protein binding in mouse; type: ADME, cell-free; settings: read-out: PPB (converted)
[5] = Metabolic stability in rat liver microsomes assessed as parent compound remaining at 1 uM and measured at 30 mins by LC-MS/MS analysis; type: ADME, Microsome; settings: read-out: Stability
[6] = Plasma protein binding in rat; type: ADME, cell-free; settings: read-out: PPB
[7] = Metabolic stability in human liver microsomes assessed as parent compound remaining at 1 uM and measured at 30 mins by LC-MS/MS analysis; type: ADME, Microsome; settings: read-out: Stability
[8] = Metabolic stability in mouse liver microsomes assessed as parent compound remaining at 1 uM and measured at 30 mins by LC-MS/MS analysis; type: ADME, Microsome; settings: read-out: Stability
[9] = molecular target: T2, Diacylglycerol O-acyltransferase 1 (Homo sapiens, UniProt O75907); assay: Inhibition of human DGAT1 in serum starved HEK293 cells assessed as inhibition of triglyceride synthesis incubated for 20 mins followed by 13C-addition of 13C-oleic acid pre-complexed with BSA for 120 mins by LC-MS-based mass spectrophotometric analysis; type: cell-based
T2 sequence (O75907 whole entry): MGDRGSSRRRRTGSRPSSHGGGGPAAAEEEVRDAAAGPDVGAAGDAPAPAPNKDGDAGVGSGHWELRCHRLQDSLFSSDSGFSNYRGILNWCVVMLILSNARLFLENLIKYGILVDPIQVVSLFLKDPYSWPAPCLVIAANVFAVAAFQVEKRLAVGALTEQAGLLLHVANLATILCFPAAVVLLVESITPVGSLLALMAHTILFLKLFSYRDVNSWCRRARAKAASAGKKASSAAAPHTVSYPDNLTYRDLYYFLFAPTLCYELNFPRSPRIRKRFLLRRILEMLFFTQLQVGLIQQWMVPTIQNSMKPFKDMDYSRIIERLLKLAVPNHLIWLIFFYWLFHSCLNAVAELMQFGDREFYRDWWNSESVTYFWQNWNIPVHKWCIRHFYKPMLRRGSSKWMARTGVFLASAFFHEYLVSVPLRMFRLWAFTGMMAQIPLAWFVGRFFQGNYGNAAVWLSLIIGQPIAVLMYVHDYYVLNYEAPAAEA

[10] = molecular target: hERG (KCNH2) (Homo sapiens, UniProt Q12809); assay: Displacement of [3H]astemizole from human ERG expressed in HEK293 cell membrane at 10 uM for 2 hrs by Radiometric displacement assay; type: toxicity; settings: HEK293 cell membranes that express hERG, probe [3H]astemizole
Chain of hERG (KCNH2) (Q12809 whole entry): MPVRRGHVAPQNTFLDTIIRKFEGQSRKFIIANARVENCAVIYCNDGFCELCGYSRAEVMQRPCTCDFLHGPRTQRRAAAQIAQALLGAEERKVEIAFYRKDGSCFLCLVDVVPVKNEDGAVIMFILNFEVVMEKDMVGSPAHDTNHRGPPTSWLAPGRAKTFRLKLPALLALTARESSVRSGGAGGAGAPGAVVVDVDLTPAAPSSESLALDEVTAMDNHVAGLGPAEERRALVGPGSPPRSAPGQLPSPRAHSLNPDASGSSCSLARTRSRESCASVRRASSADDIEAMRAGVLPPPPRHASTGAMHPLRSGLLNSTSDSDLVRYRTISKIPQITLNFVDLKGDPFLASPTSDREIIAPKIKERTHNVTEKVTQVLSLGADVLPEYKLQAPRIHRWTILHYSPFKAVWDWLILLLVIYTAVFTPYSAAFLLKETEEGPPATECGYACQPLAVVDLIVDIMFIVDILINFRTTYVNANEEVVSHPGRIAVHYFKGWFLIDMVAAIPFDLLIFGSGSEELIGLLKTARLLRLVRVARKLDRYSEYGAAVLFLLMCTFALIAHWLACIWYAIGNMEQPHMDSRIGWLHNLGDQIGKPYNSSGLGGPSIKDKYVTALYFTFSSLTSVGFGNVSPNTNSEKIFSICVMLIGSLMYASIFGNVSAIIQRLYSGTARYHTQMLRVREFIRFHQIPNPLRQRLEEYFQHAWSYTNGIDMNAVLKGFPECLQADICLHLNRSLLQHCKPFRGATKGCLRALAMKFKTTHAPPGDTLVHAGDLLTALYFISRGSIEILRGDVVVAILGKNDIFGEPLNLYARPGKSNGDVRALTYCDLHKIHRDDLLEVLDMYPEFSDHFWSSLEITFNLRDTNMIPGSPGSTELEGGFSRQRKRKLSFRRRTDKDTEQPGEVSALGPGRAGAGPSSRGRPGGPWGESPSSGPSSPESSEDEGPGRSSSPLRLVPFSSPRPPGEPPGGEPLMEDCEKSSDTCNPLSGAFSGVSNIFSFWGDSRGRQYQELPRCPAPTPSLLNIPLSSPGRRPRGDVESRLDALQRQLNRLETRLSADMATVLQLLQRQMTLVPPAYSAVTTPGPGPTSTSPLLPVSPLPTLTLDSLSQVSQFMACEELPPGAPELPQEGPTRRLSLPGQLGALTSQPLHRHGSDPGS

[11] = AUC in Wistar rat at 3 mg/kg, iv or 10 mg/kg, po and measured up to 24 hrs by LC-MS/MS analysis; type: ADME, organism-based; set-up: dose 3 mg/kg, time < 24 hrs, route iv; settings: in vivo
[12] = Drug distribution in C57BL/6 mouse liver 10 mg/kg, po and measured at 1 hrs post dose by LC-MS/MS analysis; type: ADME, organism-based; settings: read-out: Ct
[13] = Drug distribution in C57BL/6 mouse brain 10 mg/kg, po and measured at 1 hrs post dose by LC-MS/MS analysis; type: ADME, organism-based; settings: read-out: Ct
[14] = Cmax in C57BL/6 mouse at 3 mg/kg, iv or 10 mg/kg, po and measured up to 24 hrs by LC-MS/MS analysis; type: ADME, organism-based; set-up: dose 3 mg/kg, time < 24 hrs, route iv; settings: in vivo
[15] = Drug distribution in C57BL/6 mouse brain 10 mg/kg, po and measured at 2 hrs post dose by LC-MS/MS analysis; type: ADME, organism-based; settings: read-out: Ct
[16] = Clearance in Wistar rat at 3 mg/kg, iv or 10 mg/kg, po and measured up to 24 hrs by LC-MS/MS analysis; type: ADME, organism-based; settings: in vivo
[17] = Half life in C57BL/6 mouse at 3 mg/kg, iv or 10 mg/kg, po and measured up to 24 hrs by LC-MS/MS analysis; type: ADME, organism-based; settings: in vivo
[18] = Drug distribution in C57BL/6 mouse adipose tissue 10 mg/kg, po and measured at 2 hrs post dose by LC-MS/MS analysis; type: ADME, organism-based; settings: read-out: Ct
[19] = Tmax in Wistar rat at 3 mg/kg, iv or 10 mg/kg, po and measured up to 24 hrs by LC-MS/MS analysis; type: ADME, organism-based; settings: in vivo
[20] = Drug distribution in C57BL/6 mouse plasma 10 mg/kg, po and measured at 1 hrs post dose by LC-MS/MS analysis; type: ADME, organism-based
[21] = Drug distribution in C57BL/6 mouse plasma 10 mg/kg, po and measured at 2 hrs post dose by LC-MS/MS analysis; type: ADME, organism-based
[22] = Apparent permeability across apical to basolateral side in MDCK cells at 2.5 uM for 90 mins; type: ADME, cell-based, Canis lupus familiaris; settings: dog
[23] = Drug distribution in C57BL/6 mouse adipose tissue 10 mg/kg, po and measured at 8 hrs post dose by LC-MS/MS analysis; type: ADME, organism-based; settings: read-out: Ct
[24] = Drug distribution in C57BL/6 mouse liver 10 mg/kg, po and measured at 2 hrs post dose by LC-MS/MS analysis; type: ADME, organism-based; settings: read-out: Ct
[25] = Drug distribution in C57BL/6 mouse adipose tissue 10 mg/kg, po and measured at 1 hrs post dose by LC-MS/MS analysis; type: ADME, organism-based; settings: read-out: Ct
[26] = Tmax in C57BL/6 mouse at 3 mg/kg, iv or 10 mg/kg, po and measured up to 24 hrs by LC-MS/MS analysis; type: ADME, organism-based; settings: in vivo
[27] = AUC in C57BL/6 mouse at 3 mg/kg, iv or 10 mg/kg, po and measured up to 24 hrs by LC-MS/MS analysis; type: ADME, organism-based; set-up: time < 24 hrs, dose 3 mg/kg, route iv; settings: in vivo
[28] = Volume of distribution at steady state in Wistar rat at 3 mg/kg, iv or 10 mg/kg, po and measured up to 24 hrs by LC-MS/MS analysis; type: ADME, organism-based; settings: in vivo, read-out: Vdss
[29] = Oral bioavailability in C57BL/6 mouse 10 mg/kg or 3 mg/kg, iv and measured up to 24 hrs by LC-MS/MS analysis; type: ADME, organism-based; settings: in vivo
[30] = Volume of distribution at steady state in C57BL/6 mouse at 3 mg/kg, iv or 10 mg/kg, po and measured up to 24 hrs by LC-MS/MS analysis; type: ADME, organism-based; settings: in vivo, read-out: Vdss
[31] = Drug distribution in C57BL/6 mouse skeletal muscle 10 mg/kg, po and measured at 8 hrs post dose by LC-MS/MS analysis; type: ADME, organism-based, Skeletal muscle tissue; settings: read-out: Ct
[32] = Oral bioavailability in Wistar rat at 10 mg/kg or 3 mg/kg, iv and measured up to 24 hrs by LC-MS/MS analysis; type: ADME, organism-based; settings: in vivo
[33] = Drug distribution in C57BL/6 mouse liver 10 mg/kg, po and measured at 8 hrs post dose by LC-MS/MS analysis; type: ADME, organism-based; settings: read-out: Ct
[34] = Cmax in Wistar rat at 3 mg/kg, iv or 10 mg/kg, po and measured up to 24 hrs by LC-MS/MS analysis; type: ADME, organism-based; set-up: dose 3 mg/kg, time < 24 hrs, route iv; settings: in vivo
[35] = Drug distribution in C57BL/6 mouse skeletal muscle 10 mg/kg, po and measured at 2 hrs post dose by LC-MS/MS analysis; type: ADME, organism-based, Skeletal muscle tissue; settings: read-out: Ct
[36] = Half life in Wistar rat at 3 mg/kg, iv or 10 mg/kg, po and measured up to 24 hrs by LC-MS/MS analysis; type: ADME, organism-based; settings: in vivo
[37] = Drug distribution in C57BL/6 mouse skeletal muscle 10 mg/kg, po and measured at 1 hrs post dose by LC-MS/MS analysis; type: ADME, organism-based, Skeletal muscle tissue; settings: read-out: Ct
[38] = Clearance in C57BL/6 mouse at 3 mg/kg, iv or 10 mg/kg, po and measured up to 24 hrs by LC-MS/MS analysis; type: ADME, organism-based; settings: in vivo
[39] = Drug distribution in C57BL/6 mouse plasma 10 mg/kg, po and measured at 8 hrs post dose by LC-MS/MS analysis; type: ADME, organism-based
[40] = tested on: Mus musculus; assay: In vivo inhibition of DGAT1 in C57BL/6 mouse model of acute lipid challenge assessed as reduction in AUC plasma triglyceride level at 3 to 10 mg/kg, po as corn oil bolus by Oral lipid tolerance test relative to control; type: functional, organism-based; settings: dose 3-10 mg/kg
[41] = tested on: Mus musculus; assay: In vivo inhibition of DGAT1 in C57BL/6 mouse model of acute lipid challenge assessed as reduction in chylomicron derived plasma triglyceride excursion at 3 to 10 mg/kg, po as corn oil bolus by Oral lipid tolerance test relative to control; type: functional, organism-based; settings: dose 3-10 mg/kg

inhibition at 25 µM [1]: 16%
inhibition at 25 µM [2]: 18%
inhibition at 25 µM [3]: 24%
Compound: O=C(Nc1ccc(C2CCC3(CC2)CC(C(=O)O)C3)cc1)c1nnc(Nc2ccc(F)c(F)c2)o1 (configuration not stated)

fraction unbound [4]: < 0.01
remaining at 0.5 h, 1 µM [5]: 96%
fraction unbound [6]: 0.01
remaining at 0.5 h, 1 µM [7]: 100%
remaining at 0.5 h, 1 µM [8]: 97%
IC50 [9]: 14.6 nM
Compound: O=C(O)CC1CCC2(CC1)CCC(c1ccc(NC(=O)c3nnc(Nc4ccc(F)c(F)c4)o3)cc1)CC2 (stereo in doubt; 8)
inhibition at 2 h, 10 µM [10]: 18%

AUC at 24 h [11]: 30 µM·h
fraction unbound [4]: 0.01
remaining at 0.5 h, 1 µM [5]: 84%
concentration at 1 h [12]: 39.2 µM
concentration at 1 h [13]: 10 nM
Cmax [14]: 1000 nM
concentration at 2 h [15]: 10 nM
clearance [16]: 3.3 mL/min/kg
half-life [17]: 342 min
concentration at 2 h [18]: 150 nM
Tmax [19]: 1.4 h
fraction unbound [6]: 0.01
concentration at 1 h [20]: 1870 nM
concentration at 2 h [21]: 1460 nM
remaining at 0.5 h, 1 µM [7]: 100%
Papp A→B at 1.5 h, 2.5 µM [22]: 5.3 ×10⁻⁶ cm/s
remaining at 0.5 h, 1 µM [8]: 78%
concentration at 8 h [23]: 10 nM
concentration at 2 h [24]: 54.9 µM
concentration at 1 h [25]: 160 nM
Tmax [26]: 15 min
AUC at 24 h [27]: 1.6 µM·h
Vd [28]: 0.6 L/kg
bioavailability [29]: 41%
Vd [30]: 13 L/kg
concentration at 8 h [31]: 10 nM
bioavailability [32]: 38%
concentration at 8 h [33]: 22.2 µM
Cmax [34]: 9.2 µM
concentration at 2 h [35]: 50 nM
half-life [36]: 186 min
concentration at 1 h [37]: 100 nM
clearance [38]: 60 mL/min/kg
concentration at 8 h [39]: 60 nM
Compound: O=C(O)CC1CCC2(CC1)CCN(c1ccc(NC(=O)c3nnc(Nc4ccc(F)c(F)c4)o3)cn1)CC2 [listing 1 of 2 here]
inhibition at 2 h, 10 µM [10]: 10%

Compound: O=C(O)CC1CCC2(CC1)CCN(c1ccc(NC(=O)c3nnc(Nc4ccc(F)c(F)c4)o3)cn1)CC2 [listing 2 of 2 here]
inhibition [40]: Active
inhibition [41]: Active
